From article PMC9404989, “Design and Evaluation of Short Bovine Lactoferrin-Derived Antimicrobial Peptides against Multidrug-Resistant Enterococcus faecium” (Antibiotics, 2022)
Entries after “also recorded” stand apart in the source; their conditions may differ. No end group written: not given here.

Experiments:
[1] = test system: E. faecium E007 established biofilms; format: cell-based, Enterococcus faecium; settings: for concentration killing 50% of live bacteria cells in established biofilms: strain E007, 24 h established biofilms, XTT; for established biomass disrupted: strain E007, at 32 µg/mL; for MBEC50: strain E007, biomass by CV
[2] = test system: drug-resistant E. faecium clinical isolates; format: cell-based, Enterococcus faecium; settings: strains D14, D24, D25, D29, C68 and WC176
Description: (§1) To determine the MICs of peptides, we used the broth microdilution method described by the Clinical and Laboratory Standards Institute. We made serial dilutions of 10× concentration (10 µL) for each peptide in duplicates in 96-well plates (Cat No. 3595, Corning, New York, NY, USA). We added 90 µL of logarithmic-phase bacteria at 5 × 10^5 CFU/mL (in BHI media) to the peptides and then incubated the plates at 37 °C for 18 h. We measured the OD600 absorbance readings using the Spectra Max i3x spectrophotometer (Molecular Devices, San Jose, CA, USA) and determined the MIC as the peptide concentration that inhibits the growth of bacteria.

[3] = test system: human red blood cells (hRBCs); format: cell-based
Description: We evaluated the ability of the peptide to cause hemoglobin leakage using the method described in [15]. In brief, we washed human erythrocytes (Rockland Immunochemicals (Limerick, Pottstown, PA, USA)) 3× times in an equal volume of PBS and resuspended them as 2% hRBCs solution. We added 90 µL of the blood cells to 10 µL of the peptide solution (10×) in a 96-well microtiter plate (Cat No. 3595, Corning, New York, NY, USA) and incubated the plates at 37 °C for 1 h. Next, we centrifuged the plates at 500× g for 5 min, transferred 60 µL of the supernatant into a fresh 96-well plate, and read the absorbance at 540 nm. We calculated the percent hemolysis considering 100% hemolysis caused by 1% Triton X-100, and 0% on PBS and using the formula for percentage of hemolysis as: (A540 nm in the peptide solution − A540 nm in PBS)/(A540 nm of 1% Triton X-100-treated sample − A540 nm in PBS) × 100.

E. faecium WC176 = test: organism not typed; format: cell-based, Enterococcus faecium; settings: WC176, 18 h
Description: as §1

[4] = test system: E. faecium strain C68 on porcine skin; test: Ex vivo porcine skin infection assay; set-up: species or system Enterococcus faecium; settings: 1 × 10^6 CFU, 4 h treatment
From the text: We evaluated the efficacy of designed lactoferrin AMPs in an ex vivo porcine skin model previously described with minor modifications. We first cleaned the shaved porcine skin (Fisher Scientific, Hampton, NH, USA) with 70% ethanol and then water, and glued polyethylene tubing (5 mm) (Nalgene VWR 228-0170, Radnor, PA, USA) to the skin samples with cyanoacrylate glue (Fisher Scientific, Hampton, NH, USA). Using disposable razors, we cut each piece of skin glued to the tube and inserted it into a 12-well tissue culture plate (Falcon, Cat No. 353182). We infected each skin with 1 × 10^6 CFU of exponential or persister E. faecium strain C68 cells in a total volume of 10 µL. Following an incubation of 1 h at 37 °C, we treated the skin with 50 µL with 5L and 6L at concentrations of 10× or 1× MIC. After an additional 4 h of incubation at 37 °C, we washed each tubing well with 250 µL of PBS (pH 7.4) containing 0.05% Triton X-100 to remove bacteria. After serially diluting the bacterial sample, we counted their CFUs.

[5] = HPLC retention time on C18 reverse-phase column; format: physicochemical
From the text: Table 1 Physical parameters and the minimal inhibitory concentration (µg/mL) of designed peptides against E. faecium. | column: rT ^f (min)

S. aureus MW2 = test: microbe, parasite or virus in culture; format: cell-based, Staphylococcus aureus; settings: MW2, 18 h
Description: as §1

E. faecium strain C68 [6] = test: microbe, parasite or virus in culture; format: cell-based, Enterococcus faecium; settings: strain C68, 18 h
Description: as §1

E. faecium D24 = test: microbe, parasite or virus in culture; format: cell-based, Enterococcus faecium; settings: ampicillin resistant, vancomycin-sensitive isolate
Description: as §1

E. faecium D29 = test: microbe, parasite or virus in culture; format: cell-based, Enterococcus faecium; settings: ampicillin resistant, vancomycin-sensitive isolate
Description: as §1

E. faecium E007 = test: microbe, parasite or virus in culture; format: cell-based, Enterococcus faecium; settings: tetracycline-resistant strain
Description: as §1

E. faecium D14 = test: microbe, parasite or virus in culture; format: cell-based, Enterococcus faecium; settings: ampicillin resistant, vancomycin-sensitive isolate
Description: as §1

E. faecium D25 = test: microbe, parasite or virus in culture; format: cell-based, Enterococcus faecium; settings: ampicillin resistant, vancomycin-sensitive isolate
Description: as §1

E. faecium strain C68 [7] = test: ATP release assay (luciferase); format: cell-based, Enterococcus faecium; settings: 32 µg/mL, 37 °C, 30 min
Description: To determine the ATP leakage potential of the peptides, we employed a luciferase-based assay detailed in [32]. In brief, we washed the exponential phase of E. faecium strain C68 bacteria three times with PBS (pH 7.4) and adjusted it to OD600 = 0.4 in PBS. Following treatment of the bacteria with 32 µg/mL of 5L and 6L peptides at 37 °C for 30 min, we centrifuged the cells at 14,000 rpm for 5 min. We transferred 50 µL of the supernatant of each sample to each well of black, clear-bottom, 96-well plates (Cat No. 3904, Corning, New York, NY, USA) containing 50 µL of BacTiter-Glo reagent (Promega, Madison, WI, USA) and measured plate luminescence after 5 min of incubation at room temperature in the dark with a SpectraMax i3x reader (Molecular Devices, San Jose, CA, USA).

Substance | concentration killing 50% of live bacteria cells in established biofilms [1] [µg/mL] | established biomass disrupted [1] [%] | MBEC50 [1] [µg/mL] | MIC range against clinical isolates of E. faecium [2] [µg/mL] | HL50 [3] [µg/mL] | MIC WC176 (E. faecium WC176) [µg/mL] | bacterial load reduction, exponential cells, 1× MIC [4] | bacterial load reduction, persister cells, 1× MIC [4] [log] | bacterial load, exponential cells, 10× MIC [4] | bacterial load, persister cells, 10× MIC [4] | rT (HPLC retention time) [5] [min] | MIC S. aureus MW2 (S. aureus MW2) [µg/mL] | MIC EF C68 (E. faecium strain C68 [6]) [µg/mL] | MIC Media Only (E. faecium strain C68 [6]) [µg/mL] | MIC D24 (E. faecium D24) [µg/mL] | MIC D29 (E. faecium D29) [µg/mL] | MIC E007 (E. faecium E007) [µg/mL] | MIC D14 (E. faecium D14) [µg/mL] | MIC D25 (E. faecium D25) [µg/mL] | ATP leakage (luminescence) (E. faecium strain C68 [7])
RRWLWLRRWLWR-NH2 [Peptide 5L] | 8 | 75 | 10 | 4 to 16 | 56 | 8 | 1 log | 1 | effectively eliminated almost all exponential cells | effectively eliminated all; also recorded: completely eliminated persister cells | 17.522 | > 32 | 4 | 4 | 8 | 16 | 4 | 16 | 4 | increased luminescence levels
RRWLWRLRWLWR-NH2 [Peptide 6L] | 8 | 75 | 8 | 4 to 16 | 34 | 8 | 1.2 logs | 1 | effectively eliminated almost all exponential cells | completely eliminated persister cells | 18.603 | 32 | 4 | 4 | 8 | 8 | 4 | 8 | 4 | increased luminescence levels
